The record followed here is ChEMBL document CHEMBL3091428, “Synthesis and initial biological evaluation of substituted 1-phenylamino-2-thio-4,5-dimethyl-1H-imidazole derivatives” (Bioorg Med Chem Lett, 2013).

Converted amounts (≈) assume the structure as drawn.

Holding throughout (type): functional
The test system of one assay is Pichia kudriavzevii. Nature of the assay: Antimicrobial activity against Candida krusei ATCC 6258 after 24 hrs by broth microdilution method. To be noted: ATCC 6258, 24 h.
The next assay concerns Nakaseomyces glabratus. Nature of the assay: Antimicrobial activity against Candida glabrata ATCC 90030 after 24 hrs by broth microdilution method. To be noted: ATCC 90030, 24 h.
In a further assay the test system is Listeria monocytogenes. Nature of the assay: Antimicrobial activity against Listeria monocytogenes ATCC 19115 after 24 hrs by broth microdilution method. To be noted: ATCC 19115, 24 h.
The test system of the next assay is Candida albicans. The assay is described as follows: Antimicrobial activity against Candida albicans ATCC 90028 after 24 hrs by broth microdilution method. To be noted: ATCC 90028, 24 h.
Another assay relates to Staphylococcus aureus. The assay is described as follows: Antimicrobial activity against Staphylococcus aureus ATCC 25923 after 24 hrs by broth microdilution method. The settings on record: ATCC 25923, 24 h.
Assay [1] concerns Enterococcus faecalis. The assay is described as follows: Antimicrobial activity against Enterococcus faecalis ATCC 51299 after 24 hrs by broth microdilution method. To be noted: ATCC 51299, 24 h.
Assay [2] has as its system Enterococcus faecalis. The assay is described as follows: Antimicrobial activity against Enterococcus faecalis ATCC 29212 after 24 hrs by broth microdilution method. To be noted: ATCC 29212, 24 h.
For the next assay, the system named is Pseudomonas aeruginosa. Nature of the assay: Antimicrobial activity against Pseudomonas aeruginosa ATCC 27853 after 24 hrs by broth microdilution method. The settings on record: ATCC 27853, 24 h.
In a further assay the test system is Klebsiella pneumoniae. Nature of the assay: Antimicrobial activity against Klebsiella pneumoniae ATCC 13883 after 24 hrs by broth microdilution method. To be noted: ATCC 13883, 24 h.
The test system of assay [3] is Escherichia coli. Nature of the assay: Antimicrobial activity against Escherichia coli ATCC 25922 after 24 hrs by broth microdilution method. The settings on record: ATCC 25922, 24 h.
For assay [4], the system named is Escherichia coli. Nature of the assay: Antimicrobial activity against Escherichia coli ATCC 35218 after 24 hrs by broth microdilution method. To be noted: ATCC 35218, 24 h.

Consider `COc1ccc(C(=O)CSc2nc(C)c(C)n2Nc2ccc(Cl)cc2)cc1OC`, for which the MIC came out at 400 µg/mL (≈ 926 µM) in the assay on Pichia kudriavzevii; 400 µg/mL (≈ 926 µM) with Nakaseomyces glabratus; 100 µg/mL (≈ 232 µM) against Listeria monocytogenes; 400 µg/mL (≈ 926 µM) against Candida albicans; 800 µg/mL (≈ 1850 µM) in the assay on Staphylococcus aureus; 800 µg/mL (≈ 1850 µM) with Enterococcus faecalis [1]. Further, the minimal inhibitory concentration (MIC) came to 100 µg/mL (≈ 232 µM) in the assay with Enterococcus faecalis [2]; 400 µg/mL (≈ 926 µM) against Pseudomonas aeruginosa; 800 µg/mL (≈ 1850 µM) in the assay with Klebsiella pneumoniae; 400 µg/mL (≈ 926 µM) against Escherichia coli [3]; 800 µg/mL (≈ 1850 µM) against Escherichia coli [4].
Turning to `Cc1nc(SCC(=O)c2cccc(F)c2)n(Nc2ccc(Cl)cc2)c1C`, the MIC in the assay on Pichia kudriavzevii stood at 400 µg/mL (≈ 1030 µM); in the assay on Nakaseomyces glabratus it was 400 µg/mL (≈ 1030 µM); in the assay with Listeria monocytogenes, 200 µg/mL (≈ 513 µM); in the assay on Candida albicans, 400 µg/mL (≈ 1030 µM); against Staphylococcus aureus, 800 µg/mL (≈ 2050 µM); in the assay with Enterococcus faecalis [1], 800 µg/mL (≈ 2050 µM). Also, the MIC with Enterococcus faecalis [2] was found to be 100 µg/mL (≈ 256 µM); in the assay on Pseudomonas aeruginosa it was 400 µg/mL (≈ 1030 µM); with Klebsiella pneumoniae it was 800 µg/mL (≈ 2050 µM); in the assay on Escherichia coli [3], 400 µg/mL (≈ 1030 µM); with Escherichia coli [4] it was 800 µg/mL (≈ 2050 µM).
Turning to `Cc1nc(SCC(=O)c2ccc(F)cc2)n(Nc2ccc(Cl)cc2)c1C`, the MIC was determined as 800 µg/mL (≈ 2050 µM) against Pichia kudriavzevii; 1600 µg/mL (≈ 4100 µM) against Nakaseomyces glabratus; 3200 µg/mL (≈ 8210 µM) in the assay with Listeria monocytogenes; 800 µg/mL (≈ 2050 µM) with Candida albicans; 800 µg/mL (≈ 2050 µM) in the assay on Staphylococcus aureus; 800 µg/mL (≈ 2050 µM) in the assay with Enterococcus faecalis [1]. Moreover, the MIC was 1600 µg/mL (≈ 4100 µM) with Enterococcus faecalis [2]; 1600 µg/mL (≈ 4100 µM) in the assay on Pseudomonas aeruginosa; 800 µg/mL (≈ 2050 µM) in the assay on Klebsiella pneumoniae; 1600 µg/mL (≈ 4100 µM) against Escherichia coli [3]; 1600 µg/mL (≈ 4100 µM) in the assay with Escherichia coli [4].
Turning to `Cc1nc(SCC(=O)c2cccc(Cl)c2)n(Nc2ccc(Cl)cc2)c1C`, the MIC in the assay with Pichia kudriavzevii was determined as 800 µg/mL (≈ 1970 µM); against Nakaseomyces glabratus, 400 µg/mL (≈ 984 µM); with Listeria monocytogenes it was 800 µg/mL (≈ 1970 µM); in the assay with Candida albicans it was 800 µg/mL (≈ 1970 µM); in the assay on Staphylococcus aureus, 800 µg/mL (≈ 1970 µM); against Enterococcus faecalis [1], 800 µg/mL (≈ 1970 µM). Besides, the MIC against Enterococcus faecalis [2] turned out to be 400 µg/mL (≈ 984 µM); against Pseudomonas aeruginosa it was 400 µg/mL (≈ 984 µM); in the assay on Klebsiella pneumoniae, 800 µg/mL (≈ 1970 µM); in the assay with Escherichia coli [3], 800 µg/mL (≈ 1970 µM); against Escherichia coli [4] it was 800 µg/mL (≈ 1970 µM).
As to `Cc1nc(SCC(=O)c2ccc(Cl)cc2)n(Nc2ccc(Cl)cc2)c1C`, the minimum inhibitory concentration (MIC) against Pichia kudriavzevii stood at 400 µg/mL (≈ 984 µM); in the assay on Nakaseomyces glabratus it was 800 µg/mL (≈ 1970 µM); in the assay on Listeria monocytogenes, 800 µg/mL (≈ 1970 µM); in the assay with Candida albicans, 800 µg/mL (≈ 1970 µM); in the assay with Staphylococcus aureus, 800 µg/mL (≈ 1970 µM); against Enterococcus faecalis [1], 800 µg/mL (≈ 1970 µM). The minimal inhibitory concentration (MIC) is 800 µg/mL (≈ 1970 µM) with Enterococcus faecalis [2]; 400 µg/mL (≈ 984 µM) against Pseudomonas aeruginosa; 800 µg/mL (≈ 1970 µM) against Klebsiella pneumoniae; 800 µg/mL (≈ 1970 µM) in the assay with Escherichia coli [3]; 800 µg/mL (≈ 1970 µM) in the assay with Escherichia coli [4].
As to `Cc1nc(SCC(=O)c2ccc(Cl)c(Cl)c2)n(Nc2ccc(Cl)cc2)c1C`, the minimal inhibitory concentration (MIC) was determined as 400 µg/mL (≈ 907 µM) against Pichia kudriavzevii; 400 µg/mL (≈ 907 µM) with Nakaseomyces glabratus; 200 µg/mL (≈ 454 µM) with Listeria monocytogenes; 800 µg/mL (≈ 1810 µM) with Candida albicans; 800 µg/mL (≈ 1810 µM) against Staphylococcus aureus; 800 µg/mL (≈ 1810 µM) against Enterococcus faecalis [1]. The MIC against Enterococcus faecalis [2] is 50 µg/mL (≈ 113 µM); against Pseudomonas aeruginosa it was 400 µg/mL (≈ 907 µM); against Klebsiella pneumoniae, 800 µg/mL (≈ 1810 µM); in the assay on Escherichia coli [3] it was 800 µg/mL (≈ 1810 µM); against Escherichia coli [4] it was 200 µg/mL (≈ 454 µM).
With `COc1ccc(Nn2c(SCC(=O)c3cccc(OC)c3)nc(C)c2C)cc1`, the MIC with Pichia kudriavzevii came out at 800 µg/mL (≈ 2010 µM); in the assay with Nakaseomyces glabratus it was 800 µg/mL (≈ 2010 µM); against Listeria monocytogenes, 800 µg/mL (≈ 2010 µM); against Candida albicans it was 800 µg/mL (≈ 2010 µM); against Staphylococcus aureus it was 800 µg/mL (≈ 2010 µM); in the assay with Enterococcus faecalis [1], 200 µg/mL (≈ 503 µM). For the same molecule, the MIC against Enterococcus faecalis [2], in the assay with Pseudomonas aeruginosa, with Klebsiella pneumoniae, against Escherichia coli [3] and with Escherichia coli [4] was 800 µg/mL (≈ 2010 µM) throughout.
As for `COc1ccc(C(=O)CSc2nc(C)c(C)n2Nc2ccc(OO)cc2)cc1`, the MIC in the assay with Pichia kudriavzevii amounted to 400 µg/mL (≈ 1000 µM); with Nakaseomyces glabratus, 800 µg/mL (≈ 2000 µM); with Listeria monocytogenes, 800 µg/mL (≈ 2000 µM); with Candida albicans, 400 µg/mL (≈ 1000 µM); with Staphylococcus aureus it was 800 µg/mL (≈ 2000 µM); with Enterococcus faecalis [1], 800 µg/mL (≈ 2000 µM). Also, the MIC against Enterococcus faecalis [2], in the assay with Pseudomonas aeruginosa, in the assay with Klebsiella pneumoniae, in the assay with Escherichia coli [3] and in the assay on Escherichia coli [4] was 800 µg/mL (≈ 2000 µM) each time.
In the case of `COc1ccc(Nn2c(SCC(=O)c3ccc(OC)c(OC)c3)nc(C)c2C)cc1`, the MIC against Pichia kudriavzevii turned out to be 200 µg/mL (≈ 468 µM); in the assay with Nakaseomyces glabratus, 400 µg/mL (≈ 936 µM); in the assay on Listeria monocytogenes, 800 µg/mL (≈ 1870 µM); in the assay with Candida albicans, 200 µg/mL (≈ 468 µM); against Staphylococcus aureus, 800 µg/mL (≈ 1870 µM); with Enterococcus faecalis [1], 1600 µg/mL (≈ 3740 µM). The MIC against Enterococcus faecalis [2], against Pseudomonas aeruginosa, with Klebsiella pneumoniae, against Escherichia coli [3] and in the assay on Escherichia coli [4] was 800 µg/mL (≈ 1870 µM) each time.
Regarding `COc1ccc(Nn2c(SCC(=O)c3cccc(F)c3)nc(C)c2C)cc1`, the minimum inhibitory concentration (MIC) was determined as 400 µg/mL (≈ 1040 µM) in the assay on Pichia kudriavzevii; 400 µg/mL (≈ 1040 µM) against Nakaseomyces glabratus; 400 µg/mL (≈ 1040 µM) in the assay on Listeria monocytogenes; 400 µg/mL (≈ 1040 µM) with Candida albicans; 400 µg/mL (≈ 1040 µM) against Staphylococcus aureus; 800 µg/mL (≈ 2080 µM) with Enterococcus faecalis [1]. Besides, the MIC with Enterococcus faecalis [2] came to 400 µg/mL (≈ 1040 µM); in the assay on Pseudomonas aeruginosa, 400 µg/mL (≈ 1040 µM); in the assay with Klebsiella pneumoniae, 800 µg/mL (≈ 2080 µM); against Escherichia coli [3], 800 µg/mL (≈ 2080 µM); in the assay on Escherichia coli [4], 800 µg/mL (≈ 2080 µM).
